23 molecules from patent publication US20240101552A1, “CARBONYL HETEROCYCLIC COMPOUND AND APPLICATION THEREOF” (SHANGHAI PHARMACEUTICALS HOLDING CO., LTD., priority 2020, published 2024) can be followed below.

This experiment deals with LANCL2 (Homo sapiens (Human), UniProt Q9NS86). The experiment in a line: SPR (BIACORE S200) kinetic determination of LANCL2-small molecule interactions. It counts as binding. The conditions noted are these: for Kd: immobilized LANCL2, 1:1 binding model, pH 6.5, 25° C.; for Rmax (RU): maximum binding force. The procedure: 1.1 Reagent Materials • Ligand: LANCL2 • Running buffer: 20 mM MES, 150 mM NaCl, 0.05% P20, pH 6.5, 1% DMSO
LANCL2, sequence (Q9NS86 whole entry, species assumed): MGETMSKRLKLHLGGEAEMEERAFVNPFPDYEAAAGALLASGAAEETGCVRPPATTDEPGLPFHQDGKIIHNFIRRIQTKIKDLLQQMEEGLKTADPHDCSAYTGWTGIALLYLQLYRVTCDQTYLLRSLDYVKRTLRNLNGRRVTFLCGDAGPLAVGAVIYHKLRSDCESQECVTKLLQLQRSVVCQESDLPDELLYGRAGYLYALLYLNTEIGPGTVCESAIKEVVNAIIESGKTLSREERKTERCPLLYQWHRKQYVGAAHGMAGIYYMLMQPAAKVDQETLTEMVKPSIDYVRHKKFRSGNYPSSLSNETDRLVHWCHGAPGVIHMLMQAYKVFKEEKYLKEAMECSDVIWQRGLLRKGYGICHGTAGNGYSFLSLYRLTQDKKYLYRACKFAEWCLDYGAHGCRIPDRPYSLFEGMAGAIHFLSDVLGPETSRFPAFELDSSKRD
Injection conditions for small molecule compounds: a flow rate of 30 μL/min, a binding time of 60 s, a dissociation time of 300 s.
Running buffer: 20 mM MES, 150 mM NaCl, 0.05% P20, pH 6.5, 1% DMSO.
Sample chamber temperature: 25° C.; analysis temperature: 25° C.
Kinetic determination of LANCL2-small molecule interactions was performed. The kinetic parameters of small molecules BT-11 and L-1 to 60 (analytes) binding to LANCL2 (ligand) were determined using BIACORE S200. Data were generated in triplicate in a dose-dependent manner (5-8 titration points) and analyzed to determine binding models (Langmuir, conformational shifts, etc.), real-time association and dissociation constants, and equilibrium dissociation constants. SPR technology allows the validation of specific LANCL2-phytochemical interactions as well as an increased insight into the gold standard of binding mechanisms and rates. Experiments were performed on carboxymethyl polydextrose (CM5) sensor chips by amine-coupled covalent attachment of LANCL2. Data were analyzed with BIACORE S200T200 evaluation software (version 1), so as to determine affinity binding constants (KD) using a 1:1 binding model.
An optical technique for detecting molecular interactions, SPR, was used to measure the binding affinity between LANCL2 and a ligand thereof (compound to be tested). Purified recombinant LANCL2 protein was immobilized on a BIACORE sensor chip and small molecules were injected onto the protein surface using an equipment of microfluidic system. The change in total mass on the chip surface, corresponding to a small binding to the protein, was measured. […] The equilibrium dissociation constant (Kd) was often used to describe the affinity between a ligand and a protein, such as affinity degree of a ligand binding to a specific protein. Ligand-protein affinity was affected by non-covalent intermolecular interactions between two molecules, such as hydrogen bonding, electrostatic interactions, hydrophobic bonds and van der Waals forces. The steady-state affinity (Kd) for each interaction could be measured by plotting equilibrium binding levels against compound concentrations.
For orientation: In SPR one partner is held on a chip, and binding of the other changes the refractive index at the surface.

As for `O=C(NC1C2CN(C(=O)c3cccc(-c4nc5ccccc5[nH]4)n3)CC21)c1cccc(Nc2ccccn2)n1` [Embodiment L-52, N-(3-(6-(1H-benzo[d]imidazol-2-yl)picolinoyl)-3-azabicyclo[3.1.0]hexan-6-yl)-6-(pyridin-2-ylamino)picolinamide], the “binding activity compared with positive reference compound BT-11” value was “better binding activities than the positive reference compound BT-11”, the dissociation constant (Kd) (commonly the constant that tells how readily two partners part at equilibrium) turned out to be 2.83 µM and the “Rmax (RU)” value is 3.9 RU.
Turning to `O=C(c1cccc(Nc2ccccc2)n1)N1CCC2(CC1)CCN(C(=O)c1ccnc(Nc3ccccc3)n1)CC2` [Embodiment L-80, (9-(6-(phenylamino)picolinoyl)-3,9-diazaspiro[5.5]undecan-3-yl)(2-(phenylamino)pyrimidin-4-yl)methanone], the affinity, expressed as Kd, was 28.4 µM and the “Rmax (RU)” value is given as 8.5 RU.
On to `O=C(c1cccc(-c2nc3ccccc3[nH]2)n1)N1CC2CN(C(=O)C3CCC(c4ccc(Cl)cc4)CC3)CC2C1` [Embodiment L-126, (5-(6-(1Hbenzo[d]imidazol-2-yl)picolinoyl)hexahydropyrrolo[3,4-c]pyrrol-2(1H)-yl)(4-(4-chlorophenyl)cyclohexyl)methanone], for which binding was characterised by a dissociation constant (Kd) of 40.5 µM and the “Rmax (RU)” value was 3.3 RU.
The matching figures for `O=C(NC1C2CN(C(=O)c3cccc(-c4nc5ccccc5[nH]4)n3)CC21)c1ccnc(Nc2ccccc2)n1` [Embodiment L-23, N-(3-(6-(1H-benzo[d]imidazol-2-yl)picolinoyl)-3-azabicyclo[3.1.0]hexan-6-yl)-2-(phenylamino)pyrimidine-4-carboxamide]: 10.3 µM and 7.5 RU.
The matching figures for `O=C(NC1CCN(C(=O)c2ccnc(Nc3ccccc3)n2)CC1)c1ccnc(Nc2ccccc2)n1` [Embodiment L-79]: 24.8 µM and 13 RU.
For the molecule `Cc1ccc(C(=O)N2CCC3(CCN(C(=O)c4cccc(-c5cn6ccccc6n5)c4)CC3)CC2)cc1NC1=CC(=O)c2ccccc2C1=O` [Embodiment L-95, 2-((5-(9-(3-(imidazo[1,2-a]pyridin-2-yl)benzoyl)-3,9-diazaspiro[5.5]undecane-3-carbonyl)-2-methylphenyl)amino)naphthalene-1,4-dione], the “binding activity compared with positive reference compound BT-11” value was “better binding activities than the positive reference compound BT-11”, the Kd was found to be 2.09 µM and the “Rmax (RU)” value is on record as 5.2 RU.
Take `O=C(N[C@H]1[C@@H]2CN(C(=O)c3sccc3-n3cccc3)C[C@@H]21)c1cccc(-c2cn3ccccc3n2)c1` [Embodiment L-104, N-((1R,5S,6s)-3-(3-(1H-pyrrol-1-yl)thiophene-2-carbonyl)-3-azabicyclo[3.1.0]hexan-6-yl)-3-(imidazo[1,2-a]pyridin-2-yl)benzamide]: binding was characterised by a dissociation constant (Kd) of 12.5 µM and the “Rmax (RU)” value worked out at 9.7 RU.
The matching figures for `O=C(c1ccnc(Nc2ccccc2)n1)N1CCC2(CC1)CCN(C(=O)c1ccnc(Nc3ccccc3)n1)CC2` [Embodiment L-78, (3,9-diazaspiro[5.5]undecane-3,9-diyl)bis((2-(phenylamino)pyrimidin-4-yl)methanone)]: 81.5 µM and 14.4 RU.
As to `O=C(c1cccc(-c2nc3ccccc3[nH]2)n1)N1CCC2(CCN(C(=O)c3nccc(Nc4ccccc4)n3)C2)C1` [Embodiment L-66, (7-(6-(1H-benzo[d]imidazol-2-yl)picolinoyl)-2,7-diazaspiro[4.4]non-2-yl)(4-(phenylamino)pyrimidin-2-yl)methanone], the affinity, expressed as Kd, was 31.8 µM and the “Rmax (RU)” value is reported as 7.2 RU.
For the molecule `O=C(c1cccc(-c2nc3ccccc3[nH]2)n1)N1CC2CC1CN2C(=O)c1ccnc(N2CCOCC2)n1` [Embodiment L-18, (5-(6-(1H-benzo[d]imidazol-2-yl)picolinoyl)-2,5-diazabicyclo[2.2.1]heptan-2-yl)(2-morpholinopyrimidin-4-yl)methanone], the dissociation constant Kd came to 127 µM and the “Rmax (RU)” value is 5.2 RU.
Turning to `O=C(c1ccc(-c2nc3ccccc3[nH]2)nc1)N1CCC2(CCN(C(=O)c3cccc(-c4nc5ccccc5[nH]4)n3)C2)C1` [Embodiment L-60, (7-(6-(1H-benzo[d]imidazol-2-yl)nicotinoyl)-2,7-diazaspiro[4.4]nonan-2-yl)(6-(1H-benzo[d]imidazol-2-yl)pyridin-2-yl)methanone], the dissociation constant (Kd) was found to be 27.4 µM and the “Rmax (RU)” value worked out at 3.6 RU.
The matching figures for `O=C(NC1C2CN(C(=O)c3cccc(-c4nc5ccccc5[nH]4)n3)CC21)c1ccnc(N2CCOCC2)n1` [Embodiment L-14, N-(3-(6-(1H-benzo[d]imidazol-2-yl)picolinoyl)-3-azabicyclo[3.1.0]hexan-6-yl)-2-morpholinopyrimidine-4-carboxamide]: 21.1 µM and 7.1 RU.
Regarding `O=C(c1cccc(-c2nc3ccccc3[nH]2)n1)N1CC2CN(C(=O)c3ccnc(Nc4ccc(F)cc4)n3)CC2C1` [Embodiment L-82], the Kd is 42.3 µM and the “Rmax (RU)” value is given as 9.4 RU.
Turning to `O=C(c1ccc(F)c(Cl)c1)N1CC2CN(C(=O)c3cccc(-c4nc5ccccc5[nH]4)n3)CC2C1` [Embodiment L-124, (5-(6-(1Hbenzo[d]imidazol-2-yl)picolinoyl)hexahydropyrrolo[3,4-c]pyrrol-2(1H)-yl)(3-chloro-4-fluorophenyl)methanone], the affinity, expressed as Kd, was 8.79 µM and the “Rmax (RU)” value is 4.8 RU.
On to `O=C(c1ccc(-c2ccccc2)cc1)N1CC2CN(C(=O)c3cccc(-c4nc5ccccc5[nH]4)n3)CC2C1` [Embodiment L-127, (5-(6-(1Hbenzo[d]imidazol-2-yl)picolinoyl)hexahydropyrrolo[3,4-c]pyrrol-2(1H)-yl)([1,1′-biphenyl]-4-yl)methanone], for which the affinity, expressed as Kd, was 9.38 µM and the “Rmax (RU)” value amounted to 5.1 RU.
The matching figures for `O=C(c1cnc2ccccc2c1)N1CCN(C(=O)c2cccc(-c3nc4ccccc4[nH]3)n2)CC1` [Embodiment L-108, (4-(6-(1H-benzo[d]imidazol-2-yl)picolinoyl)piperazin-1-yl)(quinolin-3-yl)methanone]: 48.4 µM and 13.7 RU.
The matching figures for `Cc1ccncc1C(=O)N1CC2CN(C(=O)c3cccc(-c4nc5ccccc5[nH]4)n3)CC2C1` [Embodiment L-123, (5-(6-(1Hbenzo[d]imidazol-2-yl)picolinoyl)hexahydropyrrolo[3,4-c]pyrrol-2(1H)-yl)(4-methylpyridin-3-yl)methanone]: 18.3 µM and 3.9 RU.
As for `CCCCOc1ccc(C(=O)NC2CCN(C(=O)c3cccc(-c4cn5ccccc5n4)c3)CC2)cc1` [Embodiment L-107, 4-Butoxy-N-(1-(3-(imidazo[1,2-a]pyridin-2-yl)benzoyl)piperidin-4-yl)benzamide], the affinity, expressed as Kd, was 6.19 µM and the “Rmax (RU)” value is on record as 4.5 RU.
With `O=C(c1cccc(-c2nc3ccccc3[nH]2)n1)N1CC2CN(C(=O)c3ccc4ccccc4n3)CC2C1` [Embodiment L-69, (5-(6-(1H-benzo[d]imidazol-2-yl)picolinoyl)hexahydropyrrolo[3,4-c]pyrrol-2(1H)-yl)(quinolin-2-yl)methanone], binding was characterised by a dissociation constant (Kd) of 21.7 µM and the “Rmax (RU)” value is on record as 6.1 RU.
The matching figures for `O=C(c1cccc(-c2nc3ccccc3[nH]2)n1)N1CCC2(CC1)CCN(C(=O)c1ccnc(Nc3ccccc3)n1)C2` [Embodiment L-62, (8-(6-(1H-benzo[d]imidazol-2-yl)picolinoyl)-2,8-diazaspiro[4.5]dec-2-yl)(2-(phenylamino)pyrimidin-4-yl)methanone]: 29.3 µM and 5.7 RU.
The matching figures for `O=C(NC1CCN(C(=O)c2cccc(-c3cn4ccccc4n3)c2)CC1)c1cccc(-c2cn3ccccc3n2)c1` [Embodiment L-88, 3-(imidazo[1,2-a]pyridin-2-yl)-N-(1-(3-(imidazo[1,2-a]pyridin-2-yl)benzoyl)piperidin-4-yl)benzamide]: 16.4 µM and 9.7 RU.
The matching figures for `O=C(c1cccc(-c2nc3ccccc3[nH]2)n1)N1CCC2(CC1)CCN(C(=O)c1ccnc(Nc3ccccc3)n1)CC2` [Embodiment L-27, (9-(6-(1H-benzo[d]imidazol-2-yl)picolinoyl)-3,9-diazaspiro[5.5]undecan-3-yl)(2-(phenylamino)pyrimidin-4-yl)methanone]: 13.3 µM and 6.5 RU.
In the case of `O=C(NC1CCN(C(=O)c2ccnc(Nc3ccccc3)n2)CC1)c1cccc(Nc2ccccc2)n1` [Embodiment L-81, 6-(phenylamino)-N-(1-(2-(phenylamino)pyrimidine-4-carbonyl)piperidin-4-yl)picolinamide], binding was put at a Kd of 23 µM and the “Rmax (RU)” value amounted to 10.5 RU.
